Values joined by “and” are separate entries in the source; they are usually repeats but may differ in a detail not shown here. Equal entries are not always repeated. “Also recorded” adds a separate entry of the source.
Assays:
Human AChE = molecular target: T1, Human AChE (Homo sapiens, UniProt P22303); assay: biochemical; conditions: IC50 AChE
T1 construct: purchased Sigma
Protocol: This acetylcholinesterase (AChE) assay is based on an Amplex Red assay kit (Thermo Fisher A12217). Human AChE (Sigma) was used. Briefly, 5 μL of compounds at the desired concentration were loaded into wells of a 384-well plate. Then, 5 μl of human AChE (30 mU/mL) was loaded into each well, followed by the addition of 10 μL of the working solution which contains 400 μM Amplex Red reagent, 2 U/mL HRP, 0.2 U/mL choline oxidase, and 100 μM acetylcholine. The reaction was monitored for 60 minutes and read at 530/590 nm. AChE IC50 was determined by plotting AChE activity as a percentage of DMSO control using GraphPad Prism software.

[1] = Parallel artificial membrane permeability (IAM column) prediction of CNS permeability; format: in vitro ADME; conditions: PAMPA, 2 mM
Protocol: To predict the potential for brain permeability, a Regis Technologies analytical column connected to an Agilent HPLC system (Infinity 1260 quaternary pump and multiple wavelength detector; 1200 autosampler) was used. An IAM.PC.DD column was (4.6 mm i.d.×10 cm, particle size 5 μm; pore size 300 Å) conditioned with 20 column volumes of mobile phase or until a stable line was achieved. A mobile phase with a consistent flow rate of 1 mL/min was used comprising 100 mM Na2PO4 (solvent A) and acetonitrile (solvent B); compounds were eluted using a gradient (min/% B: 0/30, 10/60, 11/30, 15/30). Detector settings were 220, 250 and 280 nm and acquisition time was 15 min. The autosampler injected 10 μL of compound at 2 mM final, diluted from 10 mM in DMSO in 70:30 (water:acetonitrile). After elution, compound retention and void volume times were obtained from the chromatogram. The IAM capacity factor: (KIAM) was calculated using the equation: […]
where tr is the retention time of a compound and t0 is the void volume time of the column. To predict CNS permeability, we used the correlation described by the formula below.

[2] = system: HEK293T Tau RD P301S FRET biosensor (tau biosensor) cells; assay: Donor plus Recipient (D+R) tau propagation assay; format: cell-based; conditions: 20 μM, 48 hrs
Protocol: HEK293T Tau RD P301S FRET biosensor (tau biosensor) cells were grown in Dulbecco's Modified Eagle's medium (DMEM) with high glucose, 10% FBS, and 1% Penicillin-streptomycin at 37° C./5% CO2. The lead inhibitors were tested in functional tau propagation “D+R” (Donors plus Recipients) and EMT (EV-mediated transfer) assays using the tau biosensors. Briefly, tau aggregation in donor cells (D) was induced by transfection of tau biosensor cells with human AD brain derived synaptosomal extracts (35 μg of synaptosomal fraction for 5 million cells in one 10 cm dish); control cells were treated with corresponding amount of transfection reagent lipofectamine 2000. After 24 hr incubation, the cells were trypsinized and plated together with DID-labeled recipient cells (R) in a 1:1 ratio in 96-well plates (15,000 of each cell type per well) for D+R assay or 1.5 million of donor cells per well in 6-well plates for EMT assay. Tested compounds or a corresponding amount of DMSO (0.2%) was added to the cell culture medium, DMEM, which contained 10% of exosome-depleted FBS (ThermoFisher, A2720803). Four technical replicates were used for each experimental condition. The inhibitors were tested at 20 μM concentration. […] Tau seed transfer from donor to recipient cells results in FRET signal generation in the DID-positive recipient cells, which was measured by flow cytometry. Integrated FRET density was calculated in the top 30% of DID-positive cell based on DID signal intensity.
(§1) An Attune NxT Flow Cytometer (Invitrogen) equipped with an autosampler and FRET-compatible laser lines and filter sets was used for FRET signal detection. The FRET (CFP/YFP) signal was excited by a 405 nm laser for CFP excitation and detected in the YFP image detection channel. Flow cytometry data was analyzed using FCS Express version 5 software (DeNovo Software California, USA). Integrated FRET density was calculated as a product of percentage FRET positive cells and median of fluorescent intensity of the FRET positive cells as previously established.

[3] = system: HEK293T Tau RD P301S FRET biosensor (tau biosensor) cells; assay: EV-mediated tau seed transfer (EMT) assay; format: cell-based
Protocol: HEK293T Tau RD P301S FRET biosensor (tau biosensor) cells were grown in Dulbecco's Modified Eagle's medium (DMEM) with high glucose, 10% FBS, and 1% Penicillin-streptomycin at 37° C./5% CO2. The lead inhibitors were tested in functional tau propagation “D+R” (Donors plus Recipients) and EMT (EV-mediated transfer) assays using the tau biosensors. Briefly, tau aggregation in donor cells (D) was induced by transfection of tau biosensor cells with human AD brain derived synaptosomal extracts (35 μg of synaptosomal fraction for 5 million cells in one 10 cm dish); control cells were treated with corresponding amount of transfection reagent lipofectamine 2000. After 24 hr incubation, the cells were trypsinized and plated together with DID-labeled recipient cells (R) in a 1:1 ratio in 96-well plates (15,000 of each cell type per well) for D+R assay or 1.5 million of donor cells per well in 6-well plates for EMT assay. Tested compounds or a corresponding amount of DMSO (0.2%) was added to the cell culture medium, DMEM, which contained 10% of exosome-depleted FBS (ThermoFisher, A2720803). Four technical replicates were used for each experimental condition. The inhibitors were tested at 20 μM concentration. In 48 hours 50 μL of culture medium per well were collected for cell viability test (Cytotox 96 non-radioactive cytotoxicity assay, Promega Corp., Madison, Wis.). The cells in D+R assay were harvested at the 48 hr time point and fixed with 2% paraformaldehyde for flow cytometry analysis according to published protocol. Tau seed transfer from donor to recipient cells results in FRET signal generation in the DID-positive recipient cells, which was measured by flow cytometry. Integrated FRET density was calculated in the top 30% of DID-positive cell based on DID signal intensity.
For the EMT assay, cell culture medium from donor cells growing for 48 hours with the compounds at concentrations of 20 μM or a corresponding amount of DMSO (0.2%), was collected and EVs were purified using the ExoQuick-TC kit (SBI biosciences) according to the manufacturer's instructions. Naïve recipient cells were plated in 96 well plates at a density of 20,000 cells per well in exosome-free medium and transfected with donor cell-derived exosomes at 12 hrs. The recipient cells were harvested 60 hours after transfection and FRET signals were analyzed using flow cytometry.
as §1, with “The FRET (CFP/YFP) signal was excited by a 405 nm laser for CFP excitation and detected in the YFP image detection channel.” left out

[4] = Brain pharmacokinetic analysis after SQ dosing
Protocol: Pharmacokinetic (PK) analysis on the leads 8 and 11 to determine brain permeability using wild type mice was performed. The compounds were subcutaneously (SQ) injected at a dose of 20 mg per kg of body weight (mpk). Brain and plasma samples were collected 1, 2, and 4 hours after dosing.

[5] = system: Tau P301S (PS19 line) tauopathy mouse model; assay: Rapid in vivo assay: IL1β-induced brain EV release; parameters: species or system mice
[6] = system: HEK293T Tau RD P301S FRET biosensor (tau biosensor) cells; assay: EV-mediated tau seed transfer (EMT) assay; format: cell-based; conditions: 20 μM
[7] = molecular target: human serum albumin (HSA) (Homo sapiens, UniProt P02768); assay: Binding to human serum albumin (HSA); conditions: for fraction unbound: human, human serum albumin
[8] = system: HEK293T Tau RD P301S FRET biosensor cells; assay: Tau biosensor cells seeded with AD brain synaptosomal (P2) extract, FRET signal; format: cell-based; conditions: 10 μM, imaged after 24 hrs, vs DMSO
Protocol: Brain autopsy samples were obtained from the University of California Irvine, University of Southern California AD Research Centers, and University of California, Los Angeles. Brain tissue was cryopreserved and synaptosomal fractions (P2-fractions, or P2) were prepared as previously described. In order to prepare P2-extracts, aliquots were quickly defrosted at 37° C. and centrifuged at 10,000×g for 10 min at 4° C. to remove P2 from sucrose. After aspirating the supernatant, cold PBS was added to each sample in Ma 1:5 weight/volume ratio. Samples were then sonicated in 10-second intervals three times, incubated on ice for 30 min and centrifuged at 20,000 g for 20 min at 4° C. P2 extracts were collected and stored at −80° C. Tau biosensor cell treatment and analysis. HEK293T Tau RD P301S FRET biosensor cells (tau biosensors) were growing in the Dulbecco's Modified Eagle's medium (DMEM) with higher glucose, 10% FBS, and 1% Penicillin-streptomycin at 37° C./5% CO2. Cells were plated in 10-sm dishes (3 million cells per dish in the regular medium) and grown for 12 hrs. Cells were transduced with pulled synaptosomal (P2) extracts from AD cases using lipofectamine 2000. […]
Cells were imaged after 24 hrs using automated microscope imaging system (Lionheart FX) equipped with 20× objective and CFP-YFP FRET Image filter cube. […] FRET signal was detected using LSRII flow cytometer (BD biosciences). […]

human nSMase2 = molecular target: T2, human nSMase2 (Homo sapiens, UniProt Q9NY59); assay: biochemical; format: biochemical; conditions: IC50 nSMase2
T2 construct: expressed in transfected cells; host or cells: HEK293T
T2 sequence (Q9NY59 1-655): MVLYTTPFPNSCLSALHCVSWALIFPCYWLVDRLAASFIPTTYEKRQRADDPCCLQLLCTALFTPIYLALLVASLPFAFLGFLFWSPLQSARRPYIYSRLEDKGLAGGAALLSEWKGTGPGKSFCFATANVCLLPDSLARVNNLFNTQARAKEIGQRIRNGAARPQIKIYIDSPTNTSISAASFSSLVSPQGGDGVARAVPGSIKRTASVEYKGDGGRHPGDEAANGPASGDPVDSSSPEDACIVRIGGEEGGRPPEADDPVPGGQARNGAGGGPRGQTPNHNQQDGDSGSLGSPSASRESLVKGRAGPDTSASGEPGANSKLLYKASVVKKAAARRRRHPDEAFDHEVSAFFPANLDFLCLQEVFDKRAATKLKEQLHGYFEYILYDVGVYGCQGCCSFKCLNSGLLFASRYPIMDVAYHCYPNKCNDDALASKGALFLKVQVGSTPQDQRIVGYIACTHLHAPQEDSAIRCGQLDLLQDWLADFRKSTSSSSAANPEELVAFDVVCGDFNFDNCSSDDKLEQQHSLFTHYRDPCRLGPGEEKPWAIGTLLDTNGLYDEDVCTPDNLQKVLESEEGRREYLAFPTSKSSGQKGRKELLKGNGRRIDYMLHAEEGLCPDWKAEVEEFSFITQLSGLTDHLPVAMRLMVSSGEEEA
Protocol: To evaluate nSMase2 inhibitory activity of tested compounds, cell lysates from HEK293T cells over-expressing human nSMase2 were used as the source of the nSMase2 enzyme. The Amplex Red Sphingomyelinase activity assay was performed according to previously a described protocol^1. Confluent cells were washed with PBS and harvested with lysis buffer [100 mM Tris-HCl pH 7.5, 100 mM sucrose, 100 μM PMSF, 1× protease inhibitor cocktail] using a cell scraper, and then sonicated 3 times on ice for 10 sec and centrifuged at 10,000×g for 10 min at 4° C. to remove remaining cell debris. An initial screening of a compound library was performed using 50 μM compound concentrations. In secondary testing, selected compounds were analyzed at multiple compound concentrations and plotted as a percentage of DMSO control; dose-response curves were generated to determine IC50s using GraphPad Prism software (GraphPad Software, La Jolla Calif.). […] Activity of the enzyme in the presence of the different concentrations of the inhibitors was plotted against substrate concentration and the maximal rate of the enzymatic reaction (Vmax) and Michaelis constant were calculated using GraphPad Prism.

Chain of human serum albumin (HSA) (P02768 25-609): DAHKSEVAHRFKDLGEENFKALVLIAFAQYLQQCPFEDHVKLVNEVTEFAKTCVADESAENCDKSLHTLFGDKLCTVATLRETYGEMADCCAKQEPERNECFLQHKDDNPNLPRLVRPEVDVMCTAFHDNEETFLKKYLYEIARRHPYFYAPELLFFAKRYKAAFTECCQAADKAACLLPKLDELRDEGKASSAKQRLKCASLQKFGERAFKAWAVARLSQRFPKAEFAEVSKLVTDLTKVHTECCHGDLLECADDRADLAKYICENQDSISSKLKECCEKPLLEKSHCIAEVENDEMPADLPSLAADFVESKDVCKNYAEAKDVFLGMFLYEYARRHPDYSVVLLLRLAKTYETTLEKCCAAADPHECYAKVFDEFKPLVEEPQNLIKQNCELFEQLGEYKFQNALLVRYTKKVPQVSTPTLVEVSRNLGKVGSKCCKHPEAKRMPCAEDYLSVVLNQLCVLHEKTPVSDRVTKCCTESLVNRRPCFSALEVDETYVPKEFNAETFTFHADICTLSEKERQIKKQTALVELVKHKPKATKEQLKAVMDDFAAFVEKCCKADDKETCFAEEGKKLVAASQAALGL
T1 sequence (P22303 32-614): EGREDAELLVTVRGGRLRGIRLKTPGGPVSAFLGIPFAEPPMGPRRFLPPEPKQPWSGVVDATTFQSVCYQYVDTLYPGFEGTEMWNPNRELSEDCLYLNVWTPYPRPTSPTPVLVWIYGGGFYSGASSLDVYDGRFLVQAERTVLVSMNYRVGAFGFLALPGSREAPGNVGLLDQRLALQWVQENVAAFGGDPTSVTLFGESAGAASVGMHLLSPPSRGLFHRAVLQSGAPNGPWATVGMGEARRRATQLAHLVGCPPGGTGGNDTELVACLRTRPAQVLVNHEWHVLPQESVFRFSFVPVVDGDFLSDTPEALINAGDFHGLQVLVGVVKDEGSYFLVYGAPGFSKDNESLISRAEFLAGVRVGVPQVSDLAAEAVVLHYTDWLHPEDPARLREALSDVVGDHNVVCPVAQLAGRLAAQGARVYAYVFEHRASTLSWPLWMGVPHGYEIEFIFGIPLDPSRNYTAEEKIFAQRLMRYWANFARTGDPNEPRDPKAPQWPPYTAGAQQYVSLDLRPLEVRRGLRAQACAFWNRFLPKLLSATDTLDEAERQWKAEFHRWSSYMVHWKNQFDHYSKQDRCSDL

## CN1c2ccc(OC(=O)Nc3ccncc3)cc2[C@]2(C)CCO[C@H]12 [Compound 8]
Human AChE
  IC50: 6 µM
[1]
  CNS perm (PAMPA): 1.9
[2]
  tau seed transfer from donor to recipient cells, D+R assay: suppress tau propagation; also recorded: significantly suppresses
[3]; 20 μM, donor cells 48 hrs
  tau seed transfer from donor to recipient cells, EMT assay: suppress tau propagation; also recorded: significantly suppresses
[4]; mice, 20 mg/kg SQ
  brain penetration (compound levels in brain tissue, LC-MS/MS): penetrated the brain
[4]; mouse, in vivo, 20 mg/kg
  concentration at 1 h: 61 ng/g and ~200 nM
[4]; wild type mice, 20 mg/kg SQ
  time of peak brain levels after SQ dosing: around one
[5]; 20 mg/kg SQ
  IL1β-induced tau release by exosomes: less effective
[5]; mouse, in vivo, 20 mg/kg
  IL1β-induced brain EV / exosomal release (small EV concentration, TRPS): didn't induce the same level of suppression
[6]
  EV size distribution of donor-derived EVs (TRPS): did not affect
  concentrations of exosomal-type small EVs from donor cells: decreased
[6]; vs DMSO control
  levels of exosomal markers CD63, CD81, and syntenin-1 in donor EVs: reduced
[7]
  degree of binding to human serum albumin (HSA): low degree of binding
  fraction unbound: 0.28

## O=c1[nH]c(=S)[nH]c(-c2ccccc2)c1Cc1c(O)ccc2ccccc12 [DDL-112, cambinol]
[8]
  amount of FRET-positive tau aggregates (microscopy): visibly decreased

## CN1c2ccc(OC(=O)Nc3ccncc3F)cc2[C@]2(C)CCO[C@H]12 [Compound 13]
Human nSMase2
  IC50: 0.6 µM
Human AChE
  IC50: > 5 µM
[1]
  CNS perm (PAMPA): 1.3
[7]
  degree of binding to human serum albumin (HSA): low degree of binding
  fraction unbound: 0.35

## CCN(C)C(=O)Oc1cccc([C@H](C)N(C)C)c1 [rivastigmine, reference compound]
[3]; preliminary experiments, data not shown
  EV-mediated transfer from donor to recipient cells: may partially suppress

Reference: US20230113944A1, “COMPOSITIONS AND METHODS FOR THE TREATMENT OF NEURODEGENERATIVE DISEASES” (priority 2020, published 2023)
